According to ChEMBL document CHEMBL1201862, “PubChem BioAssay data set” (2004):
Calls of active or inactive are those of the source.

Key:
Phospholipase D2 = Phospholipase D2 (Homo sapiens, UniProt O14939); experiment: PLD2 inhibitor potency in cells, dose response (AID 602147); assay type: functional;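 also: cellular assay in HEK293 cells overexpressing GFP-tagged PLD2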
Phospholipase D1 = Phospholipase D1 (Homo sapiens, UniProt Q13393); experiment: PLD1 inhibitor potency in cells, dose response (AID 602151); assay type: functional;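 also: cellular PLD1 assay in Calu-1 cells stimulated with PMA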
Phospholipase D1, sequence (Q13393 whole entry): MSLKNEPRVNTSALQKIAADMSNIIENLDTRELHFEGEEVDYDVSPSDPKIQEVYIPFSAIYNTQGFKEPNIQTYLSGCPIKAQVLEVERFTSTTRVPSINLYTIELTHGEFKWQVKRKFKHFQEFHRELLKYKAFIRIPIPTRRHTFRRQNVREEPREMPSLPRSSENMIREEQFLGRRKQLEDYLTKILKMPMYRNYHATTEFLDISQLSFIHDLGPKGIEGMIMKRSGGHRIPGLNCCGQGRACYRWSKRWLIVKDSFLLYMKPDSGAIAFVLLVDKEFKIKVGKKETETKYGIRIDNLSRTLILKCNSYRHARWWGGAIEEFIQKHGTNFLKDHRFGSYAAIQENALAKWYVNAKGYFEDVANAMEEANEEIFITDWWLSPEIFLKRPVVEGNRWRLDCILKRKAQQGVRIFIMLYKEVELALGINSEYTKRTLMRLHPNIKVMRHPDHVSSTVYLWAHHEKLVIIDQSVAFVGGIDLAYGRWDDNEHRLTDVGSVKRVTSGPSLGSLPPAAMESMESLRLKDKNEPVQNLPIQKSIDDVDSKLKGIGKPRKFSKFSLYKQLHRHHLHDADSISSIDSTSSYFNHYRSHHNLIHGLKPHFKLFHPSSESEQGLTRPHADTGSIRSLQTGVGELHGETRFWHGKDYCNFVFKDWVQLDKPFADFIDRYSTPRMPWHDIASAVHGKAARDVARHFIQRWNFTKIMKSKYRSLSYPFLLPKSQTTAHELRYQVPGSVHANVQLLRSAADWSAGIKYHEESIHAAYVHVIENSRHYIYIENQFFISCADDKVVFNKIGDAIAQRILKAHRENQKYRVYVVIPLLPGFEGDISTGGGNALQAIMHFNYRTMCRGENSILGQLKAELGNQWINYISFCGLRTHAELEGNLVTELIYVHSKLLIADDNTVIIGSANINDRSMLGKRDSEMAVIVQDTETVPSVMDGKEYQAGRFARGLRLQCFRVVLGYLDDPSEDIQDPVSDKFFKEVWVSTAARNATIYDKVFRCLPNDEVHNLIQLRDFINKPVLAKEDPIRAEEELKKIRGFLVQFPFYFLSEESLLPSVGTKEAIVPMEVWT

[1] = biological target: T1, Endoribonuclease toxin MazF (Escherichia coli K-12, UniProt P0AE70); experiment: fluorescent RNA oligo signal without MazF, dose response, counter-screen for MazEF activator project, biochemical, fluorescence, single-stranded RNase substrate (AID 588502); assay type: functional
T1 sequence (P0AE70 whole entry): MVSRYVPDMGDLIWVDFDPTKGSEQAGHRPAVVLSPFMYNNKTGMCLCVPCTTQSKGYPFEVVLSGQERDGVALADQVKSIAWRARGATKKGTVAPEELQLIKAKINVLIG

[2] = biological target: T1, Endoribonuclease toxin MazF; experiment: MazF toxin RNase activators, dose response, biochemical, fluorescence, single-stranded RNA substrate, uHTS hits (AID 588481); assay type: functional
[3] = biological target: T1, Endoribonuclease toxin MazF; experiment: SAR analysis of small molecule activators of the MazEF TA System via a fluorescence-based single-stranded RNase assay counterscreen. [Related pubchem assays (depositor defined):AID504720, AID504743]; assay type: functional
[4] = biological target: T1, Endoribonuclease toxin MazF; experiment: MazF endoribonuclease activators, SAR follow-up, biochemical, fluorescence, single-stranded RNA substrate (AID 588603); assay type: functional
MEF = experiment: SAR analysis of small molecule cytotoxicity of MazEF TA System activators in embryonic fibroblast (MEF) cells. [Related pubchem assays (depositor defined):AID504720, AID504743]; assay type: functional; settings: Mus musculus
[5] = biological target: ATP-dependent molecular chaperone HSP82 (Candida albicans (strain WO-1) (Yeast), UniProt C4YTQ8); experiment: loss of DOC-induced GRE-beta-galactosidase reporter signal, dose response, Hsp90 inhibitor project, S. cerevisiae, luminescence (AID 2400); assay type: functional, cell-based;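 also: beta-galactosidase luminescence from glucocorticoid response element reporter as proxy for Hsp90 function; inhibitor potency where signal loss means Hsp90 inhibition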
ATP-dependent molecular chaperone HSP82, sequence (C4YTQ8 whole entry): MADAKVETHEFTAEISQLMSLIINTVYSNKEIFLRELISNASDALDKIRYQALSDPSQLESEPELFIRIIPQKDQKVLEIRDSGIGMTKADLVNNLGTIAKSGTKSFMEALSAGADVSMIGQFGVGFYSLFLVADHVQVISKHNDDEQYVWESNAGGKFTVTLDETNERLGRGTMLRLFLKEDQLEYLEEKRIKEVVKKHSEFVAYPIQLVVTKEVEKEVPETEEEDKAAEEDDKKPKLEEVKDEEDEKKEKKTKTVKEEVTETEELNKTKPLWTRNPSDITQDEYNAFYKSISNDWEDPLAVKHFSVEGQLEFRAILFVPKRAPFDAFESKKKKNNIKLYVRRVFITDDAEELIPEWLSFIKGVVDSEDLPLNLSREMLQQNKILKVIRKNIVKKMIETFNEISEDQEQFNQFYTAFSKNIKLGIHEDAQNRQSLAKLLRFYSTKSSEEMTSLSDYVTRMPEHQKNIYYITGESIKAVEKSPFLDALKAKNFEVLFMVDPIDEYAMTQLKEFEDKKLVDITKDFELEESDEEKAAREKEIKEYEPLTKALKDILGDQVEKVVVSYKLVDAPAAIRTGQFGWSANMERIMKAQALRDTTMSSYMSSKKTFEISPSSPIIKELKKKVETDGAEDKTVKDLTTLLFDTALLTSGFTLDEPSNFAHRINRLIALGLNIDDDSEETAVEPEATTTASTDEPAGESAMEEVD

[6] = biological target: T2, Rac GTPase-activating protein 1 (Homo sapiens, UniProt Q9H0H5); experiment: MgcRacGAP GTPase-activating activity inhibitors, confirmation, biochemical, ADP Hunter fluorescence, primary and confirmatory (AID 624330); assay type: functional
T2 sequence (Q9H0H5 whole entry): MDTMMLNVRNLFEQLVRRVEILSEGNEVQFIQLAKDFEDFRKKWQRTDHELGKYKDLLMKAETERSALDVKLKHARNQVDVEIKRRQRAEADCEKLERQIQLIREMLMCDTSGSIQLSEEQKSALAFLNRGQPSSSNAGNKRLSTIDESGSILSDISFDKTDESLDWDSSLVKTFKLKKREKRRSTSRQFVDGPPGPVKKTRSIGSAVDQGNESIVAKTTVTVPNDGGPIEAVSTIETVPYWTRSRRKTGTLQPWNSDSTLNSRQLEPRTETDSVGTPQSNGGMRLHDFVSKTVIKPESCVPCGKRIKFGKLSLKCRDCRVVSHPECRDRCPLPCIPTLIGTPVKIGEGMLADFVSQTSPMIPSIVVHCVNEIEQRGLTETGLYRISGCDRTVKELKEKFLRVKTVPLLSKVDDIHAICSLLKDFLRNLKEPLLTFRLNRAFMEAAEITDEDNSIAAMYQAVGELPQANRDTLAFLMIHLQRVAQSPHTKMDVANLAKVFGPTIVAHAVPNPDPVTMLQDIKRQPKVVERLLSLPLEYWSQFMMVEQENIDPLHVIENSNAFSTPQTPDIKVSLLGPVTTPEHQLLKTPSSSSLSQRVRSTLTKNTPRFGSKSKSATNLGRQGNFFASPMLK

[7] = C. albicans growth with fluconazole, confirmation, fluorescence, retest (AID 2467); assay type: functional, cell-based
[8] = biological target: Serine/threonine-protein phosphatase (Candida dubliniensis (strain CD36 / CBS 7987 / NCPF 3949 / NRRLY-17841) (Yeast), UniProt B9W6M3); experiment: calcineurin pathway inhibitors in yeast reporter, dose response, S. cerevisiae, CDRE-lacZ, luminescence, secondary (AID 2388); assay type: functional, cell-based;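 also: yeast reporter cells carrying a calcineurin-responsive lacZ construct stimulated with calcium chloride; luminescent beta-galactosidase reporter signal in whole cells rather than isolated phosphatase activity; potency for inhibition where a drop in reporter signal means calcineurin blockade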
Serine/threonine-protein phosphatase, sequence (B9W6M3 whole entry): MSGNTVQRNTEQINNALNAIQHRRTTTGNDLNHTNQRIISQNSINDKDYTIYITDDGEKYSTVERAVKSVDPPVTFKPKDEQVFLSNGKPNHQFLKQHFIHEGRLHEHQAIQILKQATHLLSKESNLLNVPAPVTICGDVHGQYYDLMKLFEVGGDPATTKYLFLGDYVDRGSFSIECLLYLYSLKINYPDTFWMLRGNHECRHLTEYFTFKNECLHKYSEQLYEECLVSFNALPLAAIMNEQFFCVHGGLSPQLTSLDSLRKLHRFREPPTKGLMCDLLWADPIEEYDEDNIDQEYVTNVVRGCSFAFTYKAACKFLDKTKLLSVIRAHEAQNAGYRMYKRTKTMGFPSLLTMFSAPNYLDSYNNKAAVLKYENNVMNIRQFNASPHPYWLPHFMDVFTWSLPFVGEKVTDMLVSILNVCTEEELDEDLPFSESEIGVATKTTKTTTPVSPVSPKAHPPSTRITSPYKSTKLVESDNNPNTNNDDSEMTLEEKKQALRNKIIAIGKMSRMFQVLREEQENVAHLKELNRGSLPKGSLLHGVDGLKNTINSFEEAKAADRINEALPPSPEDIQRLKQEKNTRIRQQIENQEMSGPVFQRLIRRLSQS

[9] = NIH-3T3 fibroblast cytotoxicity, dose response, cytotoxicity control, cell-based, fluorescence, Alamar Blue, secondary assay (AID 2327); assay type: functional;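 also: NIH-3T3 mouse fibroblasts cultured with fluconazole at 8 µg/mL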
[10] = biological target: T3, Nuclear receptor subfamily 0 group B member 1 (Homo sapiens, UniProt P51843); assay type: functional, cell-based
T3 sequence (P51843 whole entry): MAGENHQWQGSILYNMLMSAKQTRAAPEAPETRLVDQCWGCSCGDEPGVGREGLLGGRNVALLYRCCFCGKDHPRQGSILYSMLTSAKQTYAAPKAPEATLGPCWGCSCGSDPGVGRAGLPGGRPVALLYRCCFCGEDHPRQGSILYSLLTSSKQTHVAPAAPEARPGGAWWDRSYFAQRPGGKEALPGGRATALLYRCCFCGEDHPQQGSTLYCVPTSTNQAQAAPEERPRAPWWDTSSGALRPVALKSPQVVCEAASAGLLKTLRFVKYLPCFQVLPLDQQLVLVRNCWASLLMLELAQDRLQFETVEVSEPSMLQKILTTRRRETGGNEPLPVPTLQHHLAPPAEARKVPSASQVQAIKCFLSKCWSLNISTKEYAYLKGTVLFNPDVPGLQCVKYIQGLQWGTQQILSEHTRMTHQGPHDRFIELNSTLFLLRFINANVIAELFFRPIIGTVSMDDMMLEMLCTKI

HeLa = experiment: HeLa cell cytotoxicity, dose response, cytotoxicity control for MITF activator project, CellTiter-Glo luminescence, cherry-pick samples (AID 540259); assay type: functional, cell-based; settings: Homo sapiens
[11] = HepG2 cell cytotoxicity, dose response, cytotoxicity control, ATP luminescence, cherry-pick, activator set 2 (AID 1053143); assay type: functional, cell-based
[12] = biological target: Luciferin 4-monooxygenase (Photinus pyralis, UniProt P08659); experiment: firefly luciferase enzyme inhibitors, dose response, biochemical, luminescence (AID 1891)
Luciferin 4-monooxygenase, sequence (P08659 whole entry): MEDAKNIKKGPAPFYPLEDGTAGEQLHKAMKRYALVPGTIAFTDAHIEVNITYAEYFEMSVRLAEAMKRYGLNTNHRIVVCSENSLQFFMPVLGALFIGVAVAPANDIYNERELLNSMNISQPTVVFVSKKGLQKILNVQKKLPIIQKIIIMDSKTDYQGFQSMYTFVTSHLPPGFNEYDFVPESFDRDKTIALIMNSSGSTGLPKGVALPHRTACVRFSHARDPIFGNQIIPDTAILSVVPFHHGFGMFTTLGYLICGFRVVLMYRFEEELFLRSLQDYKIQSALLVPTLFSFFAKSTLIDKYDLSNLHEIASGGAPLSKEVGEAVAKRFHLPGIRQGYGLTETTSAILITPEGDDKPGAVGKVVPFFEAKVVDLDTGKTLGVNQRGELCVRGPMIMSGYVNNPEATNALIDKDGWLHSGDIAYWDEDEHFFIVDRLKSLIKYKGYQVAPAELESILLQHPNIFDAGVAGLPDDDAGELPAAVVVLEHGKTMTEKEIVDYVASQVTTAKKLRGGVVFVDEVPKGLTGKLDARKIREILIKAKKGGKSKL

[13] = Luminescence Cell-Based Dose Confirmation HTS to Identify Inhibitors of Platelet Dense Granule Release. [Related pubchem assays: 1663 (Primary HTS), 1678 (Summary of Project)]; assay type: functional
cells = assay type: functional, cell-based
Streptokinase A = biological target: T4, Streptokinase A (Streptococcus pyogenes serotype M1, UniProt P10520); experiment: S. pyogenes streptokinase expression inhibitors, potency, dose response, plasminogen activation absorbance, OD405 (AID 1914); assay type: functional, Streptococcus pyogenes M1 GAS;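 also: secreted streptokinase activity via plasminogen activation per viability signal from cell pellet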
T4 sequence (P10520 whole entry): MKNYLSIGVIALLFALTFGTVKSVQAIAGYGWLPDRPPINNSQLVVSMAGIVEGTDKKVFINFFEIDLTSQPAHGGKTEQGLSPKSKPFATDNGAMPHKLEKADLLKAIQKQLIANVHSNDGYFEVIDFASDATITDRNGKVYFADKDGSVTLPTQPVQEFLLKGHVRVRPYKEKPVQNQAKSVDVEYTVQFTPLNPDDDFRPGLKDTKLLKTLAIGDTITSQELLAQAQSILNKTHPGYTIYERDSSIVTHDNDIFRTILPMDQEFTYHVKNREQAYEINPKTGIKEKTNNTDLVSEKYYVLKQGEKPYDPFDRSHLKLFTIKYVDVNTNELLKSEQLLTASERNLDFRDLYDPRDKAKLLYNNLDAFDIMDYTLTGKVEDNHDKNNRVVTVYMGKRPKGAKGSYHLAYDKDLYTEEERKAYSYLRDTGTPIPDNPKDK

Streptococcus = experiment: Group A Streptococcus viability loss, dose response, counter-screen for streptokinase expression inhibitor project, luminescence, BacTiterGlo (AID 1915); assay type: functional, organism-based;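 also: potency for reduction of bacterial viability or growth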
[14] = biological target: T3, Nuclear receptor subfamily 0 group B member 1; experiment: Luminescence-based cell-based high throughput dose response assay for inhibitors of the orphan nuclear receptor subfamily 0, group B, member 1 (DAX1; NR0B1). [Related pubchem assays (depositor defined):AID504766, AID504790]; assay type: functional
HEK293 = experiment: cells; assay type: functional, cell-based; settings: Homo sapiens
Phospholipase A2 = Phospholipase A2 (Homo sapiens, UniProt P04054); assay type: functional;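 also: confirmatory dose-response counterscreen on phospholipase A2, testing hits that came from an ultra-high-throughput screen for ATG4B inhibitors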
Phospholipase A2, sequence (P04054 whole entry): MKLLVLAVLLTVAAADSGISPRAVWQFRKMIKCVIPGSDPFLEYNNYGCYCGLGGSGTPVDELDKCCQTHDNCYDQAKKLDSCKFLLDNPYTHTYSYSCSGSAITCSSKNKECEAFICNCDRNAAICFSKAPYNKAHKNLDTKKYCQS

Cysteine protease ATG4B = Cysteine protease ATG4B (Homo sapiens, UniProt Q9Y4P1); assay type: functional;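 also: Fluorescence-based dose-response confirmation assay measuring inhibition of ATG4B activity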
Cysteine protease ATG4B, sequence (Q9Y4P1 whole entry): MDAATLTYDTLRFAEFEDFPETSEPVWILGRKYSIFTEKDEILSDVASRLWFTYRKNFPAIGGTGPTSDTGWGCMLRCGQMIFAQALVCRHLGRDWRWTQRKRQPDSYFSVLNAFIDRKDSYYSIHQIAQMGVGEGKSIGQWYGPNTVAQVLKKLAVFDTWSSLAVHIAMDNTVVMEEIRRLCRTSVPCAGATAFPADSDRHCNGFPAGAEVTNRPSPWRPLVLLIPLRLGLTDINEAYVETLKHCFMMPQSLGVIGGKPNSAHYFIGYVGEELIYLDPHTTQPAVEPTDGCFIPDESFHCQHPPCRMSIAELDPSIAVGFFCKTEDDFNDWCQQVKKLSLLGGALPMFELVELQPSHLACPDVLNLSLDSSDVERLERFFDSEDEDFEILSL

Phospholipase D2, sequence (O14939 whole entry): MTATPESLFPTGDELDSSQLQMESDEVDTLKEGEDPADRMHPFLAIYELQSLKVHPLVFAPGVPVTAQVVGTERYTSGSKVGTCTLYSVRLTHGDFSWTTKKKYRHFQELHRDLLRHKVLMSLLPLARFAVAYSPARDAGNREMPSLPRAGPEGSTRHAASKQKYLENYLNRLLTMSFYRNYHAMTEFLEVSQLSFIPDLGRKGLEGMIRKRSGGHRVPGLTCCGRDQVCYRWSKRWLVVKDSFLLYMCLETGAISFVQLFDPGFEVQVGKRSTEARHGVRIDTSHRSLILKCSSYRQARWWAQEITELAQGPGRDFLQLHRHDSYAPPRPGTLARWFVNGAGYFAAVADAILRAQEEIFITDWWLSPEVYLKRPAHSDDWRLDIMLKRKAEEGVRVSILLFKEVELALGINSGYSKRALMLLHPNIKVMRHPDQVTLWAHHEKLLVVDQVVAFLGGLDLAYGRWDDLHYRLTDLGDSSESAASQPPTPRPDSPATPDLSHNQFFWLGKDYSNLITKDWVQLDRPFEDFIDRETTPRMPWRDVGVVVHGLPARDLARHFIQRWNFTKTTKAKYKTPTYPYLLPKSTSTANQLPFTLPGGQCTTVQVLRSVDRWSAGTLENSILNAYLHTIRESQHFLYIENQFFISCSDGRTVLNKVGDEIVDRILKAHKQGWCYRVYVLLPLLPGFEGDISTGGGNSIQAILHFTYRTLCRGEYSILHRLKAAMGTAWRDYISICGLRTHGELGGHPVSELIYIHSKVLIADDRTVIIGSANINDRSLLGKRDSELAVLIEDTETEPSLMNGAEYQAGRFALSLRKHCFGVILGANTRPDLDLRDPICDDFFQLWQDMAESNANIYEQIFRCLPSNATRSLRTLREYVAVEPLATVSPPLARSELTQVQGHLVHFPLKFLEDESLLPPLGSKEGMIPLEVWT

With `C[C@@H](CN1CCC(n2c(=O)[nH]c3ccccc32)CC1)NC(=O)c1ccc(F)c(F)c1` the IC50 (Phospholipase D2) was 1.6 µM (active) and the IC50 (Phospholipase D1) was 0.02 µM (active).
For `O=C(NC(=O)c1ccc(F)cc1)Nc1nc(-c2cccs2)cc(C(F)(F)F)n1`, the EC50 [1] was > 99 µM (inactive), the EC50 [2] was 20.3 µM (inactive) and the EC50 [3] was > 99 µM (inactive). The EC50 [4] was > 99 µM (inactive) and the CC50 (MEF) was > 99 µM (inactive).
For `COc1ccc(-n2c(=O)c3c4c(sc3n3c(S)nnc23)CCCC4)cc1`, the EC50 [5] was 4.45 µM (active), the IC50 [6] was 35.7 µM (active) and the EC50 [7] was 1.17 µM (active). For the same compound, the EC50 [8] was > 180 µM (inactive) and the EC50 [9] was 34.1 µM (inconclusive).
With `O=C(Nc1ccccc1)C(=O)Nc1ccc2c(c1)N(C(=O)C1CC1)CCC2` the IC50 [10] was > 67.5 µM (inactive), the AC50 (HeLa) was 14.1 µM (active) and the AC50 [11] was 26 µM (active). For the same compound, the EC50 [12] was 1.13 µM (active), the EC50 [13] was 3.74 µM (active) and the IC50 (cells) was > 67.5 µM (inactive). For the same compound, the EC50 (Streptokinase A) was > 150 µM (not active) and the EC50 (Streptococcus) was 25.4 µM (active).
For `Cc1nc(N)nc(COc2ccccc2)n1`, the IC50 [14] was > 67.4 µM (inactive) and the IC50 (HEK293) was > 67.4 µM (inactive).
For `O=C(c1ccc(Cl)c(S(=O)(=O)Nc2ccccc2C(=O)N2CCc3ccccc3C2)c1)N1CCc2ccccc2C1`, the IC50 (Phospholipase A2) was 10.7 µM (active) and the IC50 (Cysteine protease ATG4B) was 15.6 µM (active).
